The record followed here is ChEMBL document CHEMBL1143116, “Synthesis and biological evaluation of 5-(pyridin-2-yl)thiazoles as transforming growth factor-beta type1 receptor kinase inhibitors” (Bioorg Med Chem Lett, 2008).

The assay deals with T1, TGF-beta receptor type-1 (Homo sapiens) (UniProt P36897).
T1 sequence (whole entry): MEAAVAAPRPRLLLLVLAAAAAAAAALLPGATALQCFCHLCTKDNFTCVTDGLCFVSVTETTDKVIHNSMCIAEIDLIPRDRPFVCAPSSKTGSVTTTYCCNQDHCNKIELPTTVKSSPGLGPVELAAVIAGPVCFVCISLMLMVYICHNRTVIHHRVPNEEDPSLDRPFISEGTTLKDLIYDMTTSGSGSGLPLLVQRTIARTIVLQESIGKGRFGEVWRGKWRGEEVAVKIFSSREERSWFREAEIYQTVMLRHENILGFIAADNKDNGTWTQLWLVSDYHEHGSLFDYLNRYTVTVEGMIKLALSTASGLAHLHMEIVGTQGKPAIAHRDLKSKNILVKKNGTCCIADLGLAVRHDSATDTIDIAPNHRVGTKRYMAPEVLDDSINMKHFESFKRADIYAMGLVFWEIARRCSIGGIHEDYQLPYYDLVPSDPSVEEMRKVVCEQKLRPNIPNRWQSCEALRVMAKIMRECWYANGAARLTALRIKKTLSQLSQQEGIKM
Nature of the assay: Inhibition of TGF-beta-induced ALK5 in human HaCaT cells assessed as p3TP-luciferase activity. The assay is classed as cell-based.

Each structure is given as a SMILES string.

For the molecule `Cc1cccc(-c2sc(NCc3cccc(C(N)=O)c3)nc2-c2ccc3nccnc3c2)n1`, the Activity entry is “Dose-dependent effect”.
